Results taken from patent publication EP0973746B1, “SUBSTITUTED 3-CYANO QUINOLINES” (Wyeth Holdings Corporation, priority 1997, dated 1998).
In brackets after ≈: the same amount, converted by molar mass.

Test system: CX1
Test: Inhibition of cancer cell growth as measured by cell number, CX1
Assay type: cell-based
Conditions: Homo sapiens, CX-1, 48 h, read-out: IC50 CX1

CCOc1cc2ncc(C#N)c(Nc3cccc(Br)c3)c2cc1OCC [Example 47, 4-[(3-Bromophenyl)amino]6,7-diethoxy-3-quinolinecarbonitrile]
IC50: 0.0618 µg/mL (≈ 0.15 µM)
